Laboratory results taken from BindingDB's records for doi:10.1124/jpet.105.085217 (Imperial College, 2005).

Biological target: T1, Glucocorticoid receptor (Homo sapiens, UniProt P04150)
T1 sequence (P04150 whole entry): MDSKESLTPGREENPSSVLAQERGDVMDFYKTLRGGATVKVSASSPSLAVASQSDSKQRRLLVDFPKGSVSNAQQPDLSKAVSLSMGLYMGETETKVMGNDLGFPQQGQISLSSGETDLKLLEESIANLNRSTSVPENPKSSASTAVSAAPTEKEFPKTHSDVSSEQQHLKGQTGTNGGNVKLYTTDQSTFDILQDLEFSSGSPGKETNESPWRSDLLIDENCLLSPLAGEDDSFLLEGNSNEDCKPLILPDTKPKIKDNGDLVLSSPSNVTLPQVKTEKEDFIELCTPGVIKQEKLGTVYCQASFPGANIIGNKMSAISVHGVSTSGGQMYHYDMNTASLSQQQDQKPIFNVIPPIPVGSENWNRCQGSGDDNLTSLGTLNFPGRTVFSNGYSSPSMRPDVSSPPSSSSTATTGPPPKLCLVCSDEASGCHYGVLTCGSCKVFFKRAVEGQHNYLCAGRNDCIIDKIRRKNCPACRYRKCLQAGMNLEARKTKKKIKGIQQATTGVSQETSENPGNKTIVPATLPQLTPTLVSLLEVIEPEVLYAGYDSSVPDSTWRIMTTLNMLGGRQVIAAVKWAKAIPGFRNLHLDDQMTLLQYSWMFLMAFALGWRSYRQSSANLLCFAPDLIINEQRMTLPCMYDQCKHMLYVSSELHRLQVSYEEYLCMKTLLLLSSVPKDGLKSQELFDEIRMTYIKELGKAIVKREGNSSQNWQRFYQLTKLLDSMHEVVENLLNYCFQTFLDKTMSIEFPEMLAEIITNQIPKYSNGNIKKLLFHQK

`C[C@]12C=CC(=O)C=C1CC[C@@H]1[C@@H]2[C@@H](O)C[C@@]2(C)[C@H]1C[C@H]1O[C@@H](C3CCCCC3)O[C@]12C(=O)CO` [desisobutyryl-ciclesonide] was tested, and the Ki was 0.31 nM.
